Key:
BRD9 [1] = molecular target: T1, BRD9 (Homo sapiens, UniProt Q9H8M2); assay: BRD9 degradation, HiBiT-BRD9 KI HEK293 (LgBiT) cells, NanoGlo Lytic Endpoint assay (Assay Protocol 1); assay type: cell-based; conditions: BRD9 degradation; for Dmax at 1 µM / DC50: Table 2, Assay Protocol 1; for Dmax at 1 µM: 1 μM compound at 6 h of treatment, read-out: Assay 1 Dmax; for DC50: 6 h of treatment, read-out: Assay 1 DC50
T1 sequence (Q9H8M2 1-597): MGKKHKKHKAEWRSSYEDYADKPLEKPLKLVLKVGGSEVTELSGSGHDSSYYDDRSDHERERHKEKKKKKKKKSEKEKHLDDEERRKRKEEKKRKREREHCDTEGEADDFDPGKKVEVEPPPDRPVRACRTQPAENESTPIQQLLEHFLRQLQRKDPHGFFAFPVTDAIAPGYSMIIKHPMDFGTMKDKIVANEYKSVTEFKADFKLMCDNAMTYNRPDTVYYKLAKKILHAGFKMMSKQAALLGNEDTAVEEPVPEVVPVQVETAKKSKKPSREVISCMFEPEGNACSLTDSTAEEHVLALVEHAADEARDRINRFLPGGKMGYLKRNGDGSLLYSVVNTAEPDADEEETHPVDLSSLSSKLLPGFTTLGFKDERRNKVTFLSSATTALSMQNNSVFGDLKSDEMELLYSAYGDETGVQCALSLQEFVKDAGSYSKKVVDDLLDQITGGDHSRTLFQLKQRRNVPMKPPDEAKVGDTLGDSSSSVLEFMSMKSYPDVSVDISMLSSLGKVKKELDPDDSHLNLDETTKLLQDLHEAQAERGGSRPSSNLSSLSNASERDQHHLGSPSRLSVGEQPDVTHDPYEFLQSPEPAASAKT
Procedure: HiBiT-BRD9 KI HEK293 (LgBiT) Cells (Promega CS3023412) were seeded at 8000 cells per well (38 μL) in sterile white bottom 384 well plates (Invitrogen 164610 or Greiner 781080) and incubated overnight at 37° C. with 5% CO2. The next day, compounds were prepared at 1000× final concentration in DMSO and diluted 1:100 in media (DMEM PAN Biotech P04-03550+10% FBS ATCC 302025). 4 μL compound was added to each well of the cell plate and incubated for 6 h at 37° C. with 5% CO2 BRD9 expression was quantified using the NanoGlo Lytic Endpoint assay (Promega N3050). The lytic buffer was equilibrated to room temperature for 10-15 min before lytic reagent was prepared by adding substrate (1:50) and LgBit protein (1:100) in lytic buffer. 40 μL lytic reagent mix was added to each well of the cel plate and plates were centrifuged briefly at ˜50g. Plates were incubated with shaking (350 RPM) for 12-24 min before reading using the LUM plus module of a BMG Pherastar FSX. Data was analysed using Dotmatics software and % BRD9 remaining was calculated by normalisation to average data from high and low control wells (DMSO treated cels and no cells respectively).

BRD9 [2] = molecular target: T1, BRD9; assay: Degradation of BRD9 (IF), immunofluorescence in MV4-11 cells, 24 hours (Assay Protocol 2); assay type: cell-based; parameters: A suspension of MV4-11 cells (ATCC CRL-9591) was prepared; host or cells: MV4-11; conditions: BRD9 degradation
How it was run: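 % BRD9 remaining, scaled between DMSO (high) and 100 nM CFT-8634 (low) control wells, derives from mean Alexa 647 contrast in central nuclei by high-content imaging. MV4-11 cells had 24 h compound exposure at 37° C. before PFA fixation, Triton permeabilisation and anti-BRD9 E4Q3F immunostaining.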

[3] = Assay protocol 2, read-out: DC50
[4] = MV4-11, Assay protocol 2, read-out: Dmax

DC50 (BRD9 [2]; [3]) [nM]	Dmax (BRD9 [2]; [4]) [%]	Compound	also measured
		COc1cc(-c2cn(C)c(=O)c3cnccc23)cc(OC)c1CN1CCN(Cc2cccc3c2CCN(C(=O)/C(C#N)=C\C2CCOCC2)C3C)CC1 (mixture of isomers) [Compound A17, (E/Z)-2-(5-((4-(2,6-dimethoxy-4-(2-methyl-1-oxo-1,2-dihydro-2,7-naphthyridin-4-yl)benzyl)piperazin-1-yl)methyl)-1-methyl-1,2,3,4-tetrahydroisoquinoline-2-carbonyl)-3-(tetrahydro-2H-pyran-4-yl)acrylonitrile]	Dmax at 1 µM (BRD9 [1]; HEK293): 40 to 70%; DC50 (BRD9 [1]): 1.25 to 10 nM
		COc1cc(-c2cn(C)c(=O)c(C)c2C)cc(OC)c1CN1CC2CC(C1)N2C(=O)/C(C#N)=C/c1nccs1 (mixture of isomers) [BRD9l, (E/Z)-2-(3-(2,6-dimethoxy-4-(1,4,5-trimethyl-6-oxo-1,6-dihydropyridin-3-yl)benzyl)-3,6-diazabicyclo[3.1.1]heptane-6-carbonyl)-3-(thiazol-2-yl)acrylonitrile]	Dmax (BRD9 [1]; HEK293, Table 4, determined according to Assay Protocol 1, read-out: Dmax^1): 50 to 70%
		COc1cc(-c2cn(C)c(=O)c3cnccc23)cc(OC)c1CN1C2CC1CN(Cc1cccc3c1CCN(C(=O)/C(C#N)=C/C(C)(C)C)C3C)C2 (mixture of isomers) [Compound A40]	Dmax at 1 µM (BRD9 [1]; HEK293): 70 to 75%; DC50 (BRD9 [1]): 10 to 25 nM
		COc1cc(-c2cn(C)c(=O)c3cnccc23)cc(OC)c1CN1CCN(Cc2cccc3c2CCN(C(=O)/C(C#N)=C\c2ccc(F)cn2)C3C)CC1 (mixture of isomers) [Compound A12, (E/Z)-2-(5-((4-(2,6-dimethoxy-4-(2-methyl-1-oxo-1,2-dihydro-2,7-naphthyridin-4-yl)benzyl)piperazin-1-yl)methyl)-1-methyl-1,2,3,4-tetrahydroisoquinoline-2-carbonyl)-3-(5-fluoropyridin-2-yl)acrylonitrile]	Dmax at 1 µM (BRD9 [1]; HEK293): 40 to 70%; DC50 (BRD9 [1]): 10 to 25 nM
		COc1cc(-c2cn(C)c(=O)c(C)c2C)cc(OC)c1CN1CCN(C(=O)CCc2cccc3c2CCN(C(=O)/C(C#N)=C/c2nccs2)C3C)CC1 (mixture of isomers) [Compound A57, (E/Z)-2-(5-(3-(4-(2,6-dimethoxy-4-(1,4,5-trimethyl-6-oxo-1,6-dihydropyridin-4-yl)benzyl)piperazin-1-yl)-3-oxopropyl)-1-methyl-1,2,3,4-tetrahydroisoquinoline-2-carbonyl)-3-(thiazol-2-yl)acrylonitrile]	Dmax at 1 µM (BRD9 [1]; HEK293): > 75%; DC50 (BRD9 [1]): 1.25 to 10 nM
1.25 to 10	> 75	COc1cc(-c2cn(C)c(=O)c(C)c2C)cc(OC)c1CN1CCN(Cc2cccc3c2CCN(C(=O)/C(C#N)=C/c2cccc(Br)n2)C3C)CC12CC2 (mixture of isomers) [Compound B61, (E/Z)-3-(6-bromopyridin-2-yl)-2-(5-((4-(2,6-dimethoxy-4-(1,4,5-trimethyl-6-oxo-1,6-dihydropyridin-3-yl)benzyl)-4,7-diazaspiro[2.5]octan-7-yl)methyl)-1-methyl-1,2,3,4-tetrahydroisoquinoline-2-carbonyl)acrylonitrile]	
25 to 1000	40 to 70	COc1cc(-c2cn(C)c(=O)c(C)c2C)cc(OC)c1CN1CCN(Cc2ccc3c(c2)[C@@H](C)N(C(=O)/C(C#N)=C/C(C)(C)C)CC3)CC12CC2 (mixture of isomers) [Compound B199, (E/Z)-2-(7-((4-(2,6-dimethoxy-4-(1,4,5-trimethyl-6-oxo-1,6-dihydropyridin-3yl)benzyl)-4,7-diazaspiro[2.5]octan-7-yl)methyl)-1-methyl-1,2,3,4-tetrahydroisoquinoline-2-carbonyl)-4,4-dimethylpent-2-enenitrile]	
25 to 1000	40 to 70	COc1cc(-c2cn(C)c(=O)c(C)c2C)cc(OC)c1CN1CCC(O)(Cc2cccc3c2CCN(C(=O)/C(C#N)=C/C(C)(C)C)C3C)CC1 (mixture of isomers) [Compound B175, (E/Z)-2-(5-((1-(2,6-dimethoxy-4-(1,4,5-trimethyl-6-oxo-1,6-dihydropyridin-3-yl)benzyl)-4-hydroxypiperidin-4-yl)methyl)-1-methyl-1,2,3,4-tetrahydroisoquinoline-2-carbonyl)-4,4-dimethylpent-2-enenitrile]	
10 to 25	> 75	COc1cc(-c2cn(C)c(=O)c(C)c2C)cc(OC)c1CN1CCN(Cc2cccc3c2CCN(C(=O)/C(C#N)=C/C(C)(C)C)C3C)C(=O)C1(C)C (mixture of isomers) [Compound B112, (E/Z)-2-(5-((4-(2,6-dimethoxy-4-(1,4,5-trimethyl-6-oxo-1,6-dihydropyridin-3-yl)benzyl)-3,3-dimethyl-2-oxopiperazin-1-yl)methyl)-1-methyl-1,2,3,4-tetrahydroisoquinoline-2-carbonyl)-4,4-dimethylpent-2-enenitrile]	
		COc1cc(-c2cn(C)c(=O)c(C)c2C)cc(OC)c1CN(C)C1CCN(C(=O)/C(C#N)=C/c2cccc(Br)n2)CC1 [BRD9z, (E/Z)-3-(6-bromopyridin-2-yl)-2-(4-((2,6-dimethoxy-4-(1,4,5-trimethyl-6-oxo-1,6-dihydropyridin-3-yl)benzyl)(methyl)amino)piperidine-1-carbonyl)acrylonitrile]	Dmax (BRD9 [2]; MV4-11, Table 4, determined according to Assay Protocol 2, read-out: Dmax^2): > 70%; DC50 (BRD9 [2]; Table 4, determined according to Assay Protocol 2, read-out: DC50^2): > 200 nM
< 1.25	> 75	COc1cc(-c2cn(C)c(=O)c(C)c2C)cc(OC)c1CN1CCC(COc2ccc3c(c2)[C@H](C)N(C(=O)/C(C#N)=C/C(C)(C)C)CC3)CC1 [Compound C61]	
1.25 to 10	> 75	COc1cc(-c2cn(C)c(=O)c(C)c2C)cc(OC)c1CN1CCC2(CC1)CCN(c1cccc3c1CCN(C(=O)/C(C#N)=C/C(C)(C)C)[C@@H]3C)C2 [Compound C47]	
1.25 to 10	40 to 70	COc1ccc(/C=C(\C#N)C(=O)N2CCc3c(CN4CCN(Cc5c(OC)cc(-c6cn(C)c(=O)c(C)c6C)cc5OC)CC4)cccc3C2C)cn1 (mixture of isomers) [Compound B71, (E/Z)-2-(5-((4-(2,6-dimethoxy-4-(1,4,5-trimethyl-6-ox0-1,6-dihydropyridin-3-yl)benzyl)piperazin-1-yl)methyl)-1-methyl-1,2,3,4-tetrahydroisoquinoline-2-carbonyl)-3-(6-methoxypyridin-3-yl)acrylonitrile]	
10 to 25	> 75	COc1cc(-c2cn(C)c(=O)c(C)c2C)cc(OC)c1CN1CCN(Cc2cccc3c2CCN(C(=O)/C(C#N)=C/C(C)(C)C)C3C)C(C)(C)C1 (mixture of isomers) [Compound B98, (E/Z)-2-(5-((4-(2,6-dimethoxy-4-(1,4,5-trimethyl-6-oxo-1,6-dihydropyridin-3-yl)benzyl)-2,2-dimethylpiperazin-1-yl)methyl)-1-methyl-1,2,3,4-tetrahydroisoquinoline-2-carbonyl)-4,4-dimethylpent-2-enenitrile]	
< 1.25	> 75	COc1cc(-c2cn(C)c(=O)c(C)c2C)cc(OC)c1CN1CCN(Cc2cccc3c2CCN(C(=O)/C(C#N)=C/C(C)(C)CF)[C@@H]3C(C)C)CC12CC2 (single isomer, unassigned) [Compound C103, (E/Z)-2-(5-((4-(2,6-dimethoxy-4-(1,4,5-trimethyl-6-oxo-1,6-dihydropyridin-3-yl)benzyl)-4,7-diazaspiro[2.5]octan-7-yl)methyl)-1-isopropyl-1,2,3,4-tetrahydroisoquinoline-2-carbonyl)-5-fluoro-4,4-dimethylpent-2-enenitrile]	

Source: patent US20260092061A1, “COMPOUNDS FOR TARGETED PROTEIN DEGRADATION” (Amphista Therapeutics Limited, priority 2022, published 2026)
